Values of other authors as cited in patent US7632837B2, “Bicyclic heterocycles as cannabinoid-1 receptor modulators” (Bristol-Myers Squibb Company, priority 2005, dated 2009).

How the values were obtained:
[1] = chronic administration for two weeks
[2] = 16 week trial period; published Phase IIb data

SMILES | body weight [1] | body weight in human subjects [2]
Cc1c(C(=O)NN2CCCCC2)nn(-c2ccc(Cl)cc2Cl)c1-c1ccc(I)cc1 [AM-251] | substantial body weight reduction | –
Cc1c(C(=O)NN2CCCCC2)nn(-c2ccc(Cl)cc2Cl)c1-c1ccc(Cl)cc1 [SR-141716] | – | dose-dependently reduced body weight
